The record followed here is patent US12338203B2 (TAISHO PHARMACEUTICAL CO., LTD., priority 2019, dated 2025).

This test deals with T1, human LPAR1 (Homo sapiens, UniProt Q92633).
T1 construct: expressed in transfected cells
T1 sequence (Q92633 whole entry): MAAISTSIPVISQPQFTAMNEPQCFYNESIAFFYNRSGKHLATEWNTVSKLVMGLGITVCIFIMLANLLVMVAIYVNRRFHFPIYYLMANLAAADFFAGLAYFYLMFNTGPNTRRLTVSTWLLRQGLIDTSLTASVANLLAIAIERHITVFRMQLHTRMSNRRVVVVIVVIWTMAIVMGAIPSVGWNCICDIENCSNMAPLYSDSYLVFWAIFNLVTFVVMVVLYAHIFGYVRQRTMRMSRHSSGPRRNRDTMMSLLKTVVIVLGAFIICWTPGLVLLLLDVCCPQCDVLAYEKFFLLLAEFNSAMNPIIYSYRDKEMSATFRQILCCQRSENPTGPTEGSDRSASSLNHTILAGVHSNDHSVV
Briefly: Test Example 1: antagonism against response of LPA-induced increase in intracellular Ca2+ concentration in RH7777 cells stably expressing human LPAR1. The format is cell-based. The following applies: RH7777 cells stably expressing human LPAR1; Fluo-4 fluorescence, FDSS6000; read-out: IC50 value (concentration producing 50% antagonism against response of LPA-induced increase in intracellular Ca2+ concentration) (converted). The gist of the method: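 Ca2+ flux read at 540 nm emission (480 nm excitation) after LPA addition to human LPAR1-expressing RH7777 cells exposed to compound for 30 min, 37 °C, pH 7.4 HEPES-buffered HBSS. Response relative to no-compound control after basal subtraction; IC50 fitted from concentration–response.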
Consider `CCOc1cc([C@@H](C)N(CCCCc2ccccc2)C(=O)NC(C(=O)O)C(C)O)cc(OCC)c1C` (stereo partly drawn) [Example 1-11], for which the IC50 is 352 nM.

Consider `CCOc1cc(C(C)N(CCOCc2ccccc2)C(=O)NC2(C(=O)O)CCC2)c(Cl)c(OCC)c1C(C)=O` (stereo not drawn) [Example 5-189], for which the IC50 is 1.46 nM.

Regarding `CCOc1cc([C@@H](C)N(CCCCc2ccccc2)C(=O)NC2(C(=O)O)CCC2)cc(OCC)c1C(C)O` (single isomer, unassigned) [Example 1-21], the IC50 is 3.38 nM.

`CCOc1cc(C(C)N(CCCCc2ccccc2)C(=O)NC2(C(=O)O)CC(F)(F)C2)cc(OCC)c1C(C)C` (stereo not drawn) [Example 1-49]: the IC50 is 5.21 nM.

As for `CCOc1cc([C@@H](C)N(CCCCc2ccccc2)C(=O)N[C@H]2COC[C@H]2C(=O)O)cc(OCC)c1C(C)=O` [Example 1-161], the IC50 is 9.64 nM.

In the case of `CCOc1cc([C@@H](C)N(CCC(F)(F)Cc2ccccc2)C(=O)NC2CC(C(=O)O)C2)cc(OCC)c1C1CC1` (stereo partly drawn) [Example 4-83], the IC50 was 80.8 nM.

For the compound `CCOc1cc([C@@H](C)N(CCCc2ccncc2)C(=O)NC2(C(=O)O)CC(F)(F)C2)cc(COC)c1C` [Example 4-30], the IC50 was 178 nM.

With `COc1cc(C(C)N(CCOC(C)c2ccccc2)C(=O)N[C@]2(C(=O)O)C[C@@H](OC)C2)c(C)c(OC)c1C` (stereo partly drawn) [Example 5-160], the IC50 was 4.55 nM.

On to `CCOc1cc(C(C)N(CCCCc2ccccc2)C(=O)NC2(C(=O)O)CCCC2)cc(OCC)c1C` (stereo not drawn) [Example 1-112], for which the IC50 is 18.7 nM.

`CCOc1cc(C(C)N(CCOCc2ccccc2)C(=O)NC2(C(=O)O)CC(OCC)C2)cc(OCC)c1C1CC1` (stereo not drawn) [Example 5-211]: the IC50 is 1.1 nM.

As for `CCOc1cc([C@@H](C)N(CCO[C@@H](C)c2ccccc2)C(=O)N[C@]2(C(=O)O)C[C@H](OC)C2)cc(OCC)c1C(C)=O` [Example 4-122], the IC50 was 4.53 nM.

As to `CCOc1cc(C(C)N(CCOCc2ccccc2)C(=O)NC2(C(=O)O)CC2)c(Cl)c(OCC)c1C1CC1` (stereo not drawn) [Example 5-185], the IC50 is 0.919 nM.

Consider `CCOc1cc([C@@H](C)N(CCO[C@@H](C)c2ccccc2)C(=O)NC2(C(=O)O)CCOCC2)cc(OCC)c1C(C)O` (single isomer, unassigned) [Example 4-144], for which the IC50 was 8.19 nM.

`CCOc1c(C(C)O)ccc([C@@H](C)N(CCCCc2ccccc2)C(=O)NC2(C(=O)O)CC(F)(F)C2)c1C` (single isomer, unassigned) [Example 1-78]: the IC50 is 5.87 nM.

For `CCOc1c(C(C)=O)ccc([C@@H](C)N(CCOCc2ccccc2)C(=O)NC2(C(=O)O)CC(F)(F)C2)c1C` [Example 4-106], the IC50 is 1.04 nM.

Take `CCOc1cc([C@@H](C)N(CCO[C@@H](C)c2ccccc2)C(=O)NC2(C(=O)O)CC2)c(Cl)c(OCC)c1C(C)=O` [Example 5-31, 1-[([(1R)-1-(4-acetyl-2-chloro-3,5-diethoxyphenyl)ethyl]{2-[(1S)-1-phenylethoxy]ethyl}carbamoyl)amino]cyclopropane-1-carboxylic acid]: the IC50 is 2.59 nM.

For the compound `CCOc1cc([C@@H](C)N(CCOCc2ccccc2)C(=O)NC2CC(C(=O)O)C2)c(Cl)c(OCC)c1C(C)=O` (stereo partly drawn) [Example 5-37], the IC50 was 292 nM.

For `CCOc1cc([C@@H](C)N(CCC(F)(F)Cc2ccccc2)C(=O)NC2(C(=O)O)CC(OC)C2)c(Cl)c(OCC)c1C(C)=O` (stereo partly drawn) [Example 5-42], the IC50 is 7.45 nM.

For the compound `CCOc1cc([C@@H](C)N(CCCCc2ccccc2C)C(=O)NC2(C(=O)O)CC(F)(F)C2)cc(OCC)c1C` [Example 4-15], the IC50 is 32.7 nM.

On to `COc1cc([C@@H](C)N(CCOCc2ccccc2)C(=O)NC2(C(=O)O)CC(OC)C2)c(Cl)c(OC)c1C(C)=O` (stereo partly drawn) [Example 5-123], for which the IC50 is 4.33 nM.

Take `CCOc1c(C(C)=O)ccc([C@@H](C)N(CCCC(F)(F)c2ccccc2)C(=O)NC2(C(C)=O)CC(OCC)C2)c1C` (stereo partly drawn) [Example 4-71]: the IC50 is 8.06 nM.

Regarding `CCOc1cc([C@@H](C)N(CCO[C@@H](C)c2ccccc2)C(=O)NC2(C(=O)O)CC2)cc(OCC)c1C1CC1` [Example 4-112], the IC50 was 1.49 nM.

For `CCOc1cc(C(CO)N(CCCCc2ccccc2)C(=O)NC2(C(=O)O)CC(F)(F)C2)cc(OCC)c1C` (stereo not drawn) [Example 3-5], the IC50 is 4.88 nM.

For the compound `CCOc1cc([C@@H](C)N(CCO[C@@H](C)c2ccccc2)C(=O)NC2(c3nn[nH]n3)CC2)cc(OCC)c1C(C)=O` [Example 10-1, N-[(1R)-1-(4-Acetyl-3,5-Diethoxyphenyl)Ethyl]-N-{2-[(1S)-1-Phenylethoxy]Ethyl}-N′-[1-(2H-Tetrazol-5-Yl)Cyclopropyl]Urea], the IC50 was 3.22 nM.

`CCOc1c(C(C)=O)ccc([C@@H](C)N(CCO[C@H](C)c2ccccc2)C(=O)NC2(C(=O)O)CC(F)(F)C2)c1C` [Example 4-151]: the IC50 was 2.62 nM.

Turning to `CCOC1CC(NC(=O)N(CCOC(C)c2ccccc2)C(C)c2cc(OC)c(C)c(OC)c2C)(C(=O)O)C1` (stereo not drawn) [Example 5-170], the IC50 was 6.25 nM.

Regarding `CCOc1cc([C@@H](C)N(CCOCc2ccccc2)C(=O)NC2(C(=O)O)CC(F)(F)C2)cc(OCC)c1C(C)O` (stereo partly drawn) [Example 4-104], the IC50 was 1.31 nM.

As to `CCOc1cc([C@@H](C)N(CCCC(F)(F)c2ccccc2)C(=O)NC2(C(=O)O)CCC2)cc(OCC)c1C(C)O` (stereo partly drawn) [Example 4-52], the IC50 is 2.68 nM.

Regarding `CCOc1cc([C@@H](C)N(CCCC(F)(F)c2ccccc2)C(=O)NC2(C(=O)O)CCC2)cc(OCC)c1C(C)O` (stereo partly drawn) [Example 4-53], the IC50 is 1.72 nM.

In the case of `CCOc1cc([C@@H](C)N(CCCC(C)c2ccccc2)C(=O)NC2(C(=O)O)CC(F)(F)C2)cc(OCC)c1C` (stereo partly drawn) [Example 4-40, 1-({[(1R)-1-(3,5-Diethoxy-4-Methylphenyl)Ethyl](4-Phenylpentyl) Carbamoyl}Amino)-3,3-Difluorocyclobutane-1-Carboxylic Acid], the IC50 is 3.15 nM.

`CCOc1c(C2CC2)ccc([C@@H](C)N(CCO[C@H](C)c2ccccc2)C(=O)NC2(C(=O)O)CCC2)c1C` [Example 4-171]: the IC50 was 3.38 nM.

With `CCOc1cc([C@@H](C)N(CCO[C@@H](C)c2ccccc2Cl)C(=O)NC2(C(=O)O)CC(F)(F)C2)c(Cl)c(OCC)c1C(C)=O` [Example 4-175], the IC50 was 3.47 nM.

Take `CCOc1c(C(C)=O)ccc([C@@H](C)N(CCCC(F)(F)c2ccccc2)C(=O)N[C@]2(C(=O)O)C[C@H](OC)C2)c1C` [Example 4-68]: the IC50 is 8.85 nM.

Regarding `CCOc1cc(C(C)N(CCCCc2ccccc2)C(=O)NC2(C(=O)O)CC(F)(F)C2)cc(OCC)c1C(=O)CC` (stereo not drawn) [Example 1-58], the IC50 is 4.24 nM.

Turning to `CC(c1ccc(C#N)cc1)N(CCCCc1ccccc1)C(=O)NC1(C(=O)O)CC(F)(F)C1` (stereo not drawn) [Example 5-5], the IC50 was 39.7 nM.

In the case of `CCOc1cc(C(C)N(CCCCc2ccccc2)C(=O)NC2(C(=O)O)CC(F)(F)C2)cc(OCC)c1OCC` (stereo not drawn) [Example 1-55], the IC50 is 7.44 nM.

For the compound `CCOc1cc([C@@H](C)N(CCCCc2ccccc2)C(=O)NC2(C(=O)O)CC(OCC)C2)cc(OCC)c1C` (stereo partly drawn) [Example 1-100], the IC50 was 3.13 nM.

“Trans-1-[([(1R)-1-(4-Acetyl-2,6-Dichloro-3,5-Diethoxyphenyl)Ethyl]{2-[(1S)-1-Phenylethoxy]Ethyl}Carbamoyl)Amino]-3-Ethoxycyclobutane-1-Carboxylic Acid [Example 5-120]”: the IC50 was 11.1 nM.

Turning to `CCOc1cc([C@@H](C)N(CCCCc2ccccc2)C(=O)NC(C)(C)C(=O)O)cc(OCC)c1C` [Example 1-13], the IC50 is 20.4 nM.

`CCNc1cc(C(C)N(CCCCc2ccccc2)C(=O)NC2(C(=O)O)CCC2)cc(OCC)c1C#N` (stereo not drawn) [Example 5-113]: the IC50 is 3.58 nM.

Regarding `CCOc1cc([C@@H](C)N(CCCC(F)(F)c2ccccc2)C(=O)N[C@]2(C(=O)O)C[C@@H](OCC)C2)cc(OCC)c1C(C)=O` [Example 4-44, Trans-1-({[(1R)-1-(4-Acetyl-3,5-Diethoxyphenyl)Ethyl](4,4-Difluoro-4-Phenylbutyl) Carbamoyl}Amino)-3-Ethoxycyclobutane-1-Carboxylic Acid], the IC50 was 3.34 nM.

`CCOc1cc(C(C)N(CCCCc2ccccc2)C(=O)NC2(C(=O)O)CC(F)(F)C2)cc(OCC)c1C#N` (stereo not drawn) [Example 1-41]: the IC50 is 6.15 nM.

For `CCOc1cc(C(C)N(CCCCc2ccccc2)C(=O)NC2(C(=O)O)CC(F)(F)C2)c(Cl)c(OCC)c1C` (stereo not drawn) [Example 5-84], the IC50 was 3.36 nM.

As to `CCOc1cc([C@@H](C)N(CCO[C@@H](C)c2ccccc2)C(=O)NC2(C(=O)OC)CC2)c(Cl)c(OCC)c1C(C)=O` [Example 6-3, Methyl 1-[([(1R)-1-(4-Acetyl-2-Chloro-3,5-Diethoxyphenyl)Ethyl]{2-[(1S)-1-Phenylethoxy]Ethyl}Carbamoyl)Amino]Cyclopropane-1-Carboxylate], the IC50 is 672 nM.

Turning to `CCCOc1cc(C(C)N(CCCCc2ccccc2)C(=O)NC2(C(=O)O)CC(F)(F)C2)cc(OCC)c1C` (stereo not drawn) [Example 1-69], the IC50 is 5.04 nM.

For the compound `CCOc1cc([C@@H](C)N(CCCC(F)(F)c2ccccc2)C(=O)NC2(C(=O)O)CCC2)cc(OCC)c1C(C)=O` [Example 4-50], the IC50 was 1.21 nM.

`COc1cc(C(C)N(CCOCc2ccccc2)C(=O)NC2(C(=O)O)CCC2)c(Cl)c(OC)c1C(C)=O` (stereo not drawn) [Example 5-132]: the IC50 was 4.97 nM.

Consider `CCOc1cc([C@@H](C)N(CCO[C@@H](C)c2ccccc2)C(=O)NC2(C(=O)O)CC(OC)C2)cc(OCC)c1C(C)O` (stereo partly drawn) [Example 4-124], for which the IC50 is 5.44 nM.

Regarding `COc1cc(CN(CCCCc2ccccc2)C(=O)NC(CC(F)(F)F)C(=O)O)cc(OC)c1C` (stereo not drawn) [Example 1-6], the IC50 was 1580 nM.

Regarding `CCOc1cc([C@@H](C)N(CCOCc2ccccc2)C(=O)NC2(C(=O)O)CC(F)(F)C2)c(Cl)c(OCC)c1C(C)O` (single isomer, unassigned) [Example 5-55], the IC50 was 1.09 nM.

Regarding `CCOc1cc([C@@H](C)N(CCCCc2ccccc2)C(=O)NCC2(C(=O)O)CC2)cc(OCC)c1C(C)=O` [Example 1-144], the IC50 is 28.7 nM.
